Laboratory results reported in the supplement of paper PMC10883282.

Key:
Assay in all cases: standardised AUC of viability dose-response curve (72 h) (fraction (0-1)); higher = less growth inhibition (more resistant)
A204 = system: A204
Summary of the method: (§1)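 After 72 h with 2.5 µl of compound (compound-plate series 10 mM to 0.0002 mM), triplicate wells of sarcoma cell lines in 384-well plates were read with ATPLite, with viability scaled 1 (full) to 0 (none) and fitted with a four-parameter log-logistic model. The values give the standardised area under the dose-response curve in log-dose space from a modified drexplorer computeAUC. A value of 1 means no response and 0 means full response.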

G401 = system: G401
Summary of the method: as §1

HS729 = system: HS729
Summary of the method: as §1

HT1080 = system: HT1080
Summary of the method: as §1

KHOS-240S = system: KHOS-240S
Summary of the method: as §1

KHOS-NP = system: KHOS-NP
Summary of the method: as §1

MES-SA = system: MES-SA
Summary of the method: as §1

RD-ES = system: RD-ES
Summary of the method: as §1

RD = system: RD
Summary of the method: as §1

SK-ES-1 = system: SK-ES-1
Summary of the method: as §1

SK-LMS-1 = system: SK-LMS-1
Summary of the method: as §1

SW1353 = system: SW1353
Summary of the method: as §1

SW684 = system: SW684
Summary of the method: as §1

SW872 = system: SW872
Summary of the method: as §1

SW982 = system: SW982
Summary of the method: as §1

SYO-1 = system: SYO-1
Summary of the method: as §1

VA-ES-BJ = system: VA-ES-BJ
Summary of the method: as §1

| Compound | standardised AUC (A204) | standardised AUC (G401) | standardised AUC (HS729) | standardised AUC (HT1080) | standardised AUC (KHOS-240S) | standardised AUC (KHOS-NP) | standardised AUC (MES-SA) | standardised AUC (RD-ES) | standardised AUC (RD) | standardised AUC (SK-ES-1) | standardised AUC (SK-LMS-1) | standardised AUC (SW1353) | standardised AUC (SW684) | standardised AUC (SW872) | standardised AUC (SW982) | standardised AUC (SYO-1) | standardised AUC (VA-ES-BJ) |
| --- | --- | --- | --- | --- | --- | --- | --- | --- | --- | --- | --- | --- | --- | --- | --- | --- | --- |
| Cc1cc(F)c(C(=O)Nc2cccc(-c3nncn3C(C)C)n2)cc1-n1cnc(C2CC2)c1 [SELONSERTIB] | 0.94 | 0.969 | 0.992 | 1 | 0.977 | 0.962 | 0.959 | 0.985 | 0.995 | 0.953 | 0.988 | 0.999 | 0.981 | 1 | 1 | 0.957 | 0.976 |
| Cn1cnc2c(F)c(Nc3ccc(Br)cc3Cl)c(C(=O)NOCCO)cc21 [SELUMETINIB] | 0.953 | 0.904 | 0.955 | 0.816 | 0.89 | 0.782 | 0.919 | 0.986 | 0.784 | 0.977 | 0.748 | 0.861 | 0.931 | 0.79 | 0.926 | 0.902 | 0.887 |
| CO[C@H]1C[C@@H]2CC[C@@H](C)[C@@](O)(O2)C(=O)C(=O)N2CCCC[C@H]2C(=O)O[C@H]([C@H](C)C[C@@H]2CC[C@@H](OC(=O)C(C)(CO)CO)[C@H](OC)C2)CC(=O)[C@H](C)/C=C(\C)[C@@H](O)[C@@H](OC)C(=O)[C@H](C)C[C@H](C)/C=C/C=C/C=C/1C [TEMSIROLIMUS] | 0.592 | 0.763 | 0.887 | 0.94 | 0.854 | 0.934 | 0.511 | 0.754 | 0.731 | 0.647 | 0.64 | 0.883 | 0.933 | 0.741 | 0.743 | 0.81 | 0.588 |
